Measured values published in patent US7163957B2, “3-(Cyclopenten-1-yl)-benzyl-or 3-(cyclopenten-1-yl)-heteroarylmethyl-amine derivatives and use thereof as medicines for treating schizophrenia” (Pierre Fabre Medicament, priority 2002, dated 2007).
Where a name gives a salt, the structure may show the parent alone.

What was measured:
D2 receptors [1] = biological target: D2 receptors (Homo sapiens, UniProt P14416); test: Affinity for the D2 receptors, displacement of (3H) YM-09151-2; type: binding; details: for Ki: displacement of (3H) YM-09151-2, mean of at least 3 experiments, read-out: D2 pKi (converted)
Sequence of D2 receptors (Homo sapiens, UniProt P14416) (P14416 whole entry): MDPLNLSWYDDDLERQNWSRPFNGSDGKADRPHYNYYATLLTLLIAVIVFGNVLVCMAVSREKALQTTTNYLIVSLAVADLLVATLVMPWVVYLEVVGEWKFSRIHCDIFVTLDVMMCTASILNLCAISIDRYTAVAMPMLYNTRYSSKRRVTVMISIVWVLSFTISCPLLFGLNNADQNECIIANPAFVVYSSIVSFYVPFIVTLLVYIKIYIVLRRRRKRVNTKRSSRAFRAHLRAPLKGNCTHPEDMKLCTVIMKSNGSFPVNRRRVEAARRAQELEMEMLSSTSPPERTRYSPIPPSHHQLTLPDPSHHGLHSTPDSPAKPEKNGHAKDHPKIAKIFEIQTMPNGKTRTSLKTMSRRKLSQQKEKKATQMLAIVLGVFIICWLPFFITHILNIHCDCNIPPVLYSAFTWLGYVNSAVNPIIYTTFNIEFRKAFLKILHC
Description: 1—Measurement of the affinity of the compounds of the invention for the D2 receptors.
The pKi values, (pKi=−log Ki), are given in the form of the mean±SEM of at least 3 experiments.

5-HT1A receptors = biological target: T1, 5-HT1A receptors (Homo sapiens, UniProt P08908); test: Affinity for the 5-HT1A receptors, displacement of [3H]8-OH-DPAT; type: binding; details: for Ki: displacement of [3H]8-OH-DPAT, mean of at least 3 experiments, read-out: 5-HT1A pKi (converted)
T1 sequence (P08908 1-422): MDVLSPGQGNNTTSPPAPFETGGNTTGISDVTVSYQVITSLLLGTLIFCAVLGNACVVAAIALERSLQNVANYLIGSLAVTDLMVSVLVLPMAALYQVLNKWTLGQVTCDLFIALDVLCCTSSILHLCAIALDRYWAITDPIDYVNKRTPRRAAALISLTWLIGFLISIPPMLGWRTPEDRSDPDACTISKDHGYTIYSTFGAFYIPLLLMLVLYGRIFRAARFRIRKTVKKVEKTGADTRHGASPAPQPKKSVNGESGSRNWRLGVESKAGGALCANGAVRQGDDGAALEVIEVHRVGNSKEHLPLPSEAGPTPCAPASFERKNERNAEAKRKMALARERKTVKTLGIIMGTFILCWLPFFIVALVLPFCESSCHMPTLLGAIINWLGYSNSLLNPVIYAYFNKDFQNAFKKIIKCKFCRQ
Description: 2—Measurement of the affinity of the compounds of the invention for the 5-HT1A receptors.
The affinity in vitro of the compounds of the invention for the receptors of the 5-HT1A subtype was determined by measuring the displacement of [^3H]8-OH-DPAT (TRK 850; 160-240 Ci/mmol).
The pKi values, (pKi =−log Ki), are given in the form of the mean±SEM of at least 3 experiments.

D2 receptors [2] = test: Antagonist activity of the D2 receptors in vivo: inhibition of the behavior induced by methylphenidate; details: Rattus norvegicus, rats, oral route, read-out: Normalization ED50
Description: 3—Evaluation of the antagonist activity of the D2 receptors in vivo.

catalepsy = test: Cataleptigenic effects (catalepsy); type: in vivo; details: rats; for ED50: rat, in vivo, oral route; for cataleptigenic effects (in words): high doses (i.e. 40 mg/kg)
Description: 4—Evaluation of the cataleptigenic effects of the compounds of the invention.

| SMILES | melting point | affinity for the 5-HT1A receptors (in words) (5-HT1A receptors) | ED50 (D2 receptors [2]) | ED50 (catalepsy) | further results |
| --- | --- | --- | --- | --- | --- |
| CC1(C)Cc2cccc(OCCNCc3cccc(C4=CCCC4)c3)c2O1 (as salt: fumarate) [Compound 1a, [2-(2,2-Dimethyl-2,3-dihydrobenzofuran-7-yloxy)ethyl]-(3-cyclopenten-1-ylbenzyl)amine] | 146 °C |  |  |  |  |
| CC1(C)Cc2cccc(OCCNCc3cncc(C4=CCCC4)c3)c2O1 (as salt: fumarate) [Compound 1b, [2-(2,2-Dimethyl-2,3-dihydrobenzofuran-7-yl-oxy)ethyl]-(5-cyclopenten-1-ylpyridin-3-ylmethyl)amine] | 141 °C |  |  |  |  |
| C1=C(c2cccc(CNCCOc3cccc4ccoc34)c2)CCC1 (as salt: fumarate) [Compound 1c, [2-(Benzofuran-7-yloxy)ethyl]-(3-cyclopenten-1-ylbenzyl)amine] | 126 °C |  |  |  |  |
| Cc1cc2cccc(OCCNCc3cccc(C4=CCCC4)c3)c2o1 (as salt: fumarate) [Compound 1d, [2-(2-Methylbenzofuran-7-yloxy)ethyl]-(3-cyclopenten-1-ylbenzyl)amine] | 133 °C |  |  |  |  |
| C1=C(c2cccc(CNCCOc3cccc4c3OCC4)c2)CCC1 (as salt: fumarate) [Compound 1e, [2-(2,3-Dihydrobenzofuran-7-yloxy)ethyl]-(3-cyclopenten-1-ylbenzyl)amine] | 118 °C |  |  |  |  |
| CC1(C)Cc2cccc(OCCNCc3cccc(C4=C(F)CCC4)c3)c2O1 (as salt: fumarate) [Compound 1g, [2-(2,2-Dimethyl-2,3-dihydrobenzofuran-7-yl-oxy)ethyl]-[3-(2-fluorocyclopenten-1-yl)benzyl]amine] | 145 °C |  |  |  |  |
| C1=C(c2cccc(CNCCOc3cccc4c3OC3(CC3)C4)c2)CCC1 (as salt: maleate) [Compound 1f] | 180 °C |  |  |  |  |
| CC1(C)Cc2cccc(OCCNCc3cccc(C4=CCCC4)c3)c2O1 [Compound 1a, [2-(2,2-Dimethyl-2,3-dihydrobenzofuran-7-yloxy)ethyl]-(3-cyclopenten-1-ylbenzyl)amine] |  | high affinity | 1.3 mg/kg | > 40 mg/kg | Ki (D2 receptors [1]): 0.316 nM; Ki (5-HT1A receptors): 6.31 nM; cataleptigenic effects (in words) (catalepsy): free of any cataleptigenic effects |
| C1=C(c2cccc(CNCCOc3cccc4c3OC3(CC3)C4)c2)CCC1 [Compound 1f] |  | high affinity | 0.63 mg/kg | > 40 mg/kg | Ki (D2 receptors [1]): 0.631 nM; Ki (5-HT1A receptors): 6.31 nM; cataleptigenic effects (in words) (catalepsy): free of any cataleptigenic effects |
| Cc1nc2n(c(=O)c1CCN1CCC(c3noc4cc(F)ccc34)CC1)CCCC2 [Risperidone, risperidone, reference compound] |  | low affinity | 6.5 mg/kg |  | affinity for the D2 receptors (in words) (D2 receptors [1]): good affinity |
| O=C(CCCN1CCC(O)(c2ccc(Cl)cc2)CC1)c1ccc(F)cc1 [haloperidol, reference compound] |  | low affinity | 0.46 mg/kg | 0.92 mg/kg |  |
| CNc1cc(OC)c(C(=O)NC2CCN(Cc3ccccc3)C2C)cc1Cl (stereo not shown) [nemonapride, reference compound] |  | high affinity | 1.5 mg/kg | 5 mg/kg |  |
